Assay results taken from publication PMC9226319, “Peripherally restricted transthyretin-based delivery system for probes and therapeutics avoiding opioid-related side effects” (Nature Communications, 2022).
Several values for one entry are separate records, joined by “and”; a condition that tells them apart may be missing. Identical values can stand only once. Like-named read-outs stand apart in the source and are kept apart here.

Assays:
[1] = biological target: purified human TTR (Homo sapiens, UniProt P02766); assay: Fluorescence polarization (FP) binding assay, ligands to TTR in buffer
[2] = biological target: T1, human mu-opioid receptors (Homo sapiens, UniProt P35372); assay: biochemical; type: binding
[3] = Serum stability assay of AG10-L2-Nal, rat serum; type: in vitro ADME; details: 100 µM
Method: (§1) AG10-L2-Nal (100 μM) was incubated in sera, and the concentration remaining in respective media was determined at 0 and 48 h using HPLC. Bar graphs represent the mean of % compound remaining ± s.d. […] The plasma, brain tissue, and CSF were collected at 30 min after dosing. The ratio of the brain (ng/g) versus plasma concentration (ng/mL) is expressed as the percentage brain to plasma ratio. The ratio of the CSF (ng/mL) versus plasma concentration (ng/mL) is expressed as the percentage CSF to plasma ratio. Bar graphs show the respective mean (±s.d.) (n = 3 for each group). […] The concentration of the test compounds in plasma was determined at different time points and expressed as means ± s.d. of three biological replicates. Source data are provided as a Source Data file. […]
(§2) (Taiwan). The experimental procedure was performed as reported12. […]
(§3) Serum stability assay of AG10-L2-Nal. […] 100 μL samples were analyzed at 0 h, 24 h, and 48 h time intervals. […] The supernatant was analyzed using Waters™ XBridge C18 column (4.6x250 mm, 5μm) on Waters e2695 separations module HPLC system connected to a Waters 2998 photodiode array detector operating between the UV ranges of 200-400 nm. […]

[4] = Serum stability assay of AG10-L2-Nal, human serum; type: in vitro ADME; details: 100 µM
Method: as §1, §2, §3

[5] = biological target: holo-RBP-TTR interaction (Homo sapiens, UniProt P02766); assay: Effect on holo-RBP-TTR interaction in human serum (cross-linking, Western blot)
[6] = rat; for plasma concentration: SC 16 µmol/kg, individual animals
[7] = in vivo; details: male, Sprague Dawley, rat, sc
[8] = biological target: T1, human mu-opioid receptors; assay: biochemical; type: biochemical; parameters: host or cells: CHO-K1 (Chinese hamster ovary), membrane preparation

T1 sequence (P35372 whole entry): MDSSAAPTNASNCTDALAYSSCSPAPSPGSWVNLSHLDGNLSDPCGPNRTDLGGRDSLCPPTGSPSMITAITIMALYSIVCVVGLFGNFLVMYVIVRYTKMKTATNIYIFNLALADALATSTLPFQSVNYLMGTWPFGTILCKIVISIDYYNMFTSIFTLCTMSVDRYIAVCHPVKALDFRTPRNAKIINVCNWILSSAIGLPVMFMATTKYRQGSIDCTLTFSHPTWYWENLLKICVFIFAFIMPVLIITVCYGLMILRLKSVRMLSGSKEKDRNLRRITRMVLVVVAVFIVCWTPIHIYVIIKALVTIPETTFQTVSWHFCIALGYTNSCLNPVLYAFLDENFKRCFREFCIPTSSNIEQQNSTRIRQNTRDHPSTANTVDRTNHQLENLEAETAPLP

C=CCN1CC[C@]23c4c5ccc(O)c4O[C@H]2[C@@H](OCc2cn(CCNCCCCCCOc4cc(OCCCc6c(C)n[nH]c6C)cc(C(=O)O)c4)nn2)CC[C@@]3(O)[C@H]1C5 [AG10-L2-Nal]
Kd [1]: 333 nM
% Fluorescence polarization (mean) ([1]; log [nM] inhibitor 0.990): 100.000%
% Fluorescence polarization (mean) ([1]; log [nM] inhibitor 1.291): 106.646%
% Fluorescence polarization (mean) ([1]; log [nM] inhibitor 1.592): 105.531%
% Fluorescence polarization (mean) ([1]; log [nM] inhibitor 1.893): 103.770%
% Fluorescence polarization (mean) ([1]; log [nM] inhibitor 2.194): 97.021%
% Fluorescence polarization (mean) ([1]; log [nM] inhibitor 2.495): 90.708%
% Fluorescence polarization (mean) ([1]; log [nM] inhibitor 2.796): 79.479%
% Fluorescence polarization (mean) ([1]; log [nM] inhibitor 3.097): 54.083%
% Fluorescence polarization (mean) ([1]; log [nM] inhibitor 3.398): 38.835%
% Fluorescence polarization (mean) ([1]; log [nM] inhibitor 3.699): 31.550%
% Fluorescence polarization (mean) ([1]; log [nM] inhibitor 4.000): 21.649%
% Fluorescence polarization (mean) ([1]; log [nM] inhibitor […]): 0.000%
% Inhibition of Control Specific Binding [2]: 88.5%
fold better mu-opioid receptor binding affinity than MNTX [2]: 17 fold
fold higher mu-opioid receptor binding affinity than AG10-L1-Nal [2]: 5.7 fold
Ki ([2]; binding affinity to mu-opioid receptor (Ki)): 0.35 nM
Ki ([2]; binding affinity to mu-opioid receptor (Ki) in the presence of TTR): 1.3 nM
% compound remaining in rat serum ([3]; 0 h, replicates): 101.22% and 98.78% and 100.03%
% compound remaining in rat serum ([3]; 37 °C, 48 h, table replicates): 100% and 99.06% and 98.97% and 99.95%
% compound remaining in human serum ([4]; 0 h, replicates): 101.76% and 98.77% and 99.47%
% compound remaining in human serum ([4]; 37 °C, 48 h, table replicates): 100% and 100.03% and 100.96% and 96.87%
interference with holo-RBP binding to TTR ([5]; 20 µM in human serum, 2 h 37 °C): does not interfere with
%holo RBP binding to TTR ([5]; human serum, quantified from gel image, replicates (Supp Fig.14b)): 7% and 8.1% and 7.9%
plasma concentration ([6]; 0.03 h): 1290 nM and 1240 nM and 552 nM
plasma concentration ([6]; 0.25 h): 5340 nM and 6840 nM
plasma concentration ([6]; 0.5 h): 3960 nM and 4020 nM
plasma concentration ([6]; 0.75 h): 3620 nM and 2900 nM
plasma concentration ([6]; 1 h): 3480 nM and 3260 nM
plasma concentration ([6]; 2 h): 1350 nM and 1760 nM
plasma concentration ([6]; 4 h): 1120 nM and 1540 nM
plasma concentration ([6]; 6 h): 623 nM and 938 nM
plasma concentration ([6]; 8 h): 699 nM and 1120 nM
plasma concentration ([6]; 12 h): 166 nM and 200 nM and 516 nM
plasma concentration ([6]; 24 h): 49.7 nM and 31.1 nM
k ([6]; single SC dose 16 µmol/kg): 0.20 ± 0.04 h⁻¹
AUC(0-inf) ([7]; 16 umol/kg): 17.6 ± 2.54 µM·h
CL/F ([7]; 16 umol/kg): 15.3 mL/min/kg
Vd/F ([7]; 16 umol/kg): 4.89 ± 1.83 L/kg
half-life ([7]; 16 umol/kg): 3.62 ± 0.76 h
concentration at 0.25 h ([7]; 16 µmol/kg, plasma concentration, SC 16 µmol/kg, 0.25 h, individual animals): 7560 nM
concentration at 0.5 h ([7]; 16 µmol/kg, plasma concentration, SC 16 µmol/kg, 0.5 h, individual animals): 4680 nM
concentration at 0.75 h ([7]; 16 µmol/kg, plasma concentration, SC 16 µmol/kg, 0.75 h, individual animals): 4580 nM
concentration at 1 h ([7]; 16 µmol/kg, plasma concentration, SC 16 µmol/kg, 1 h, individual animals): 4240 nM
concentration at 2 h ([7]; 16 µmol/kg, plasma concentration, SC 16 µmol/kg, 2 h, individual animals): 2370 nM
concentration at 4 h ([7]; 16 µmol/kg, plasma concentration, SC 16 µmol/kg, 4 h, individual animals): 1470 nM
concentration at 6 h ([7]; 16 µmol/kg, plasma concentration, SC 16 µmol/kg, 6 h, individual animals): 1050 nM
concentration at 8 h ([7]; 16 µmol/kg, plasma concentration, SC 16 µmol/kg, 8 h, individual animals): 727 nM
concentration at 24 h ([7]; 16 µmol/kg, plasma concentration, SC 16 µmol/kg, 24 h, individual animals): 40.6 nM
IC50 [8]: 7.5 nM
Kb [8]: 0.81 nM
agonism relative to DAMGO [8]: 2%
fold increase of morphine EC50 [8]: 950 fold
fold more potent than naloxegol in functional assay [8]: 10 fold
